From patent publication US20220313686A1, “PHARMACEUTICAL COMPOSITIONS COMPRISING A COMBINATION OF OPIOID ANTAGONISTS” (YISSUM RESEARCH DEVELOPMENT COMPANY OF THE HEBREW …, priority 2019, published 2022)

Columns and labels:
[1] = Passive loading of naloxone and naltrexone into MLV's liposomes; type: physicochemical
opioid receptors [2] = conditions: in vivo; cited from earlier work
μ-opioid receptor = μ-opioid receptor (Homo sapiens, UniProt P35372); conditions: cited from earlier work
κ-receptor [3] = target: T1, κ-receptor (Homo sapiens, UniProt P41145); conditions: in vitro; cited from earlier work
δ-receptor [4] = target: T2, δ-receptor (Homo sapiens, UniProt P41143); conditions: in vitro; cited from earlier work
μ-receptor = μ-receptor (Homo sapiens, UniProt P35372); conditions: in vitro; cited from earlier work
κ-receptor [5] = target: T1, κ-receptor; conditions: in vitro; cited from earlier work; remark: listed apart in the source
δ-receptor [6] = target: T2, δ-receptor; conditions: in vitro; cited from earlier work; remark: listed apart in the source
opioid receptors [7] = conditions: metabolite of naltrexone; cited from earlier work

T1 sequence (P41145 whole entry): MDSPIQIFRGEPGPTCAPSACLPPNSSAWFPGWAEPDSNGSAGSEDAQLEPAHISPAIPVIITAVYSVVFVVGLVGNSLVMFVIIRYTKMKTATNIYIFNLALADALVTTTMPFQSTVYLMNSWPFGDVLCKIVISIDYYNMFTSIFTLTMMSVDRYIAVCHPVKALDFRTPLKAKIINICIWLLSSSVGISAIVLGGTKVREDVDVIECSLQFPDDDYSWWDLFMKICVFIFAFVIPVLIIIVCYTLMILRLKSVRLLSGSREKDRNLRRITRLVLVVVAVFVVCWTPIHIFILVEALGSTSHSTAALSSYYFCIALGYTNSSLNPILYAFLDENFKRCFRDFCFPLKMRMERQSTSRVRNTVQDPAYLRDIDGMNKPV
Chain of μ-opioid receptor (P35372 whole entry, species assumed): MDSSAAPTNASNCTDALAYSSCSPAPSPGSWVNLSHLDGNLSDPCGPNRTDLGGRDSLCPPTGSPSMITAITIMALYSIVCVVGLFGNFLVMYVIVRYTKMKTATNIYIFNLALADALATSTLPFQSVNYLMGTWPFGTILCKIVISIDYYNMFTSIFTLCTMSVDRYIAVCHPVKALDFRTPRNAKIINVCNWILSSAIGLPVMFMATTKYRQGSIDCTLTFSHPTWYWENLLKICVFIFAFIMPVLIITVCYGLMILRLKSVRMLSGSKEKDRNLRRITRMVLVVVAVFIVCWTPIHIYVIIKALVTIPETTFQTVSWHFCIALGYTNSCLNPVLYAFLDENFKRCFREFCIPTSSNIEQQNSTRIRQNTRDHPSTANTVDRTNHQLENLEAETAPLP
T2 sequence (P41143 whole entry): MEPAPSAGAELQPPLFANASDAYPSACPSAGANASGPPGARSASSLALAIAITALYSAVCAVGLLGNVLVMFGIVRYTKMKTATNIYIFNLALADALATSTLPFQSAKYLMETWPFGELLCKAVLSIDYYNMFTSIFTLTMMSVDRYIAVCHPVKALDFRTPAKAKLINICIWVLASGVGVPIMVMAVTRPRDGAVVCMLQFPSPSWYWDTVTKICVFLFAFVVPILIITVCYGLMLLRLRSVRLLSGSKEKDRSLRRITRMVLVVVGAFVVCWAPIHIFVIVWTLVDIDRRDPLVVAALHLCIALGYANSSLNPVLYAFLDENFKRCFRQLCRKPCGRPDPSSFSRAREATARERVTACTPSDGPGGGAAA
Chain of μ-receptor (P35372 whole entry, species assumed): as the sequence (P35372 whole entry, species assumed) above

O=C1CC[C@@]2(O)[C@H]3Cc4ccc(O)c5c4[C@@]2(CCN3CC2CC2)[C@H]1O5 [Naltrexone, 17-(cyclopropylmethyl)-4,5α-epoxy-3,14-dihydroxymorphinan-6-one]
Liposomal naltrexone conc. [1]: 8.1 mg/mL | duration of effect (opioid receptors [2]): last about a day

C=CCN1CC[C@]23c4c5ccc(O)c4O[C@H]2C(=O)CC[C@@]3(O)[C@H]1C5 [Naloxone, 17-allyl-4,5α-epoxy-3,14-dihydroxymorphinan-6-one]
Liposomal naloxone conc. [1]: 6.8 mg/mL

NC(=O)c1ccc2c(c1O)[C@]13CCN(CC4CC4)[C@H](C2)[C@]1(O)CCC(=O)C3 [Samidorphan, 3-carboxamido-4-hydroxynaltrexone]
greater affinity at mu-opioid receptor compared to naltrexone (μ-opioid receptor): five | affinity at μ-receptor (μ-opioid receptor; in vitro): high affinity | affinity at κ-receptor (κ-receptor [3]): high affinity | affinity at δ-receptor (δ-receptor [4]): high affinity | action at μ-receptor (μ-receptor): antagonist | action at κ-receptor (κ-receptor [5]): partial agonist | action at δ-receptor (δ-receptor [6]): partial agonist

Oc1ccc2c3c1O[C@H]1[C@H](O)CC[C@@]4(O)[C@@H](C2)N(CC2CC2)CC[C@]314 [60-naltrexol]
antagonist activity (opioid receptors [7]): active antagonist
